The term inhibition denotes the drop in the measured response relative to a control, in per cent.

In one data set the test system is aromatase. The data set is described as follows: Basal aromatase activity in intact monolayers of cultured breast tissue fibroblasts. It counts as cell-based, human. As to conditions: for inhibition of basal aromatase activity (in words): stromal fibroblasts from normal or malignant breast tissue; for inhibition of basal aromatase activity: fibroblasts derived from reduction mammoplasty tissue, 24 h pre-treatment then 48 h with dexamethasone 100 nmol/l. The method, then: (§1) Inhibition of basal and TNFα-stimulated aromatase activity by paclitaxel (Pax) in breast tissue fibroblasts. Paclitaxel was added to cells which were cultured for 24 h in 2% stripped foetal calf serum. TNFα was added, in the presence of dexamethasone (100 nmol/l) and cells cultured for a further 48 h in the same medium. Controls and cells with paclitaxel, but not TNFα, were also cultured in the presence of dexamethasone for a 48 h period. Aromatase activity was measured in intact monolayers after washing cells with phosphate buffered saline. (means±SD, n=3; a, p<0.001 versus controls; b, p<0.001 versus TNFα-stimulated aromatase activity).
(§2) Samples of breast adipose or tumour tissue were obtained from women undergoing reduction mammoplasty or lumpectomy after obtaining their informed consent.
(§3) Fibroblasts were cultured as previously described (2). Briefly, they were cultured in Eagles' modified minimal essential medium containing Hepes buffer (20 mmol/l), 10% foetal calf serum (FCS) and supplements. Cells were routinely passaged 2-3 times after which replicate 25 cm^2 flasks were seeded with fibroblasts and grown to confluency.
(§4) At the end of the treatment period aromatase activity was measured in intact monolayers using [1β-^3H] androstenedione (15-30 Ci/mmol, NEN-Du Pont, Stevenage, Herts, UK) over a 3-20 h period (2, 3). The number of cells was measured by counting cell nuclei using a Coulter counter. Experiments were carried out in triplicate and results shown are representative of 2-3 investigations.

Data set [1] deals with IL-6 plus IL-6sR stimulated aromatase activity. The data set is described as follows: IL-6 plus IL-6sR stimulated aromatase activity in breast fibroblasts. As to conditions: for inhibition of stimulation of aromatase activity by IL-6 plus its soluble receptor (in words): breast fibroblasts; for inhibition of IL-6 plus IL-6sR (50 ng+100 ng/ml) stimulated aromatase activity, significance: compound 10 μM, p<0.001. It counts as cell-based, human. Here is the method: (§5) The experimental protocol used was as described in the legend to FIG. 1.
as §3, §4

Data set [2] concerns PGE2 stimulated aromatase activity. The data set is described as follows: PGE2 stimulated aromatase activity in breast fibroblasts. It counts as cell-based, human. As to conditions: for inhibition of stimulation of aromatase activity by PGE2 (in words): breast fibroblasts; for inhibition of PGE2 (10 μM) stimulated aromatase activity, significance: compound 10 μM, p<0.001. The method, then:
as §5, §3, §4

In data set [3] the test system is TNFα stimulated aromatase activity. Kind of data set: TNFα-stimulated aromatase activity in cultured breast tissue fibroblasts. The class given is cell-based, human. As to conditions: for inhibition of TNFα-stimulated aromatase activity (in words): stromal fibroblasts from normal or malignant breast tissue; for inhibition of TNFα (20 ng/ml) stimulated aromatase activity, significance: compound 10 μM, p<0.001; for inhibition of TNFα-stimulated aromatase activity: fibroblasts derived from reduction mammoplasty tissue, 24 h pre-treatment, then TNFα plus dexamethasone for 48 h. The method, then:
as §1, §2, §3, §4

In data set [4] the test system is MDA-MB-435 breast cancer cells. As to conditions: oral administration, mice; cited from earlier work.
Another data set relates to B16 melanoma. As to conditions: oral administration, mice; cited from earlier work.
The test system of another data set is Meth A sarcoma. As to conditions: oral administration, mice; cited from earlier work.
Data set [5] has as its system TNFα stimulated aromatase activity. As to conditions: high concentrations, 10-100 μM; cited from earlier work.
The next data set concerns TNFα receptors. As to conditions: human macrophages; cited from earlier work.

“Also recorded” adds a separate entry of the source.

As to `COc1cc2c(cc1OS(N)(=O)=O)CCC1C2CC[C@]2(C)C(=O)CCC12` (stereo partly drawn) [2-MeOEMATE, 2-methoxyoestrone-3-O-sulphamate], in the data set with aromatase, the “inhibition of basal aromatase activity (in words)” value was “inhibited; also recorded: reduced”. Further, in [1], the “inhibition of stimulation of aromatase activity by IL-6 plus its soluble receptor (in words)” value is recorded as “antagonise; also recorded: inhibited”. Moreover, the “inhibition of stimulation of aromatase activity by PGE2 (in words)” value (shortened to “inhibition of stimulation … by PGE2 (in words)”) in data set [2] was “antagonise; also recorded: inhibited”. The “inhibition of TNFα-stimulated aromatase activity (in words)” value in data set [3] is recorded as “inhibited; also recorded: reduced”.
For `COc1cc2c(cc1O)CC[C@@H]1[C@@H]2CC[C@]2(C)[C@@H](O)CC[C@@H]12` [2-meOE2, 2-methoxyoestradiol], the tumour growth result in [4] is “significantly reduced”. Further, in the data set on B16 melanoma, the tumour growth result is listed as “significantly reduced”. Besides, in the data set on aromatase, the “inhibition of basal aromatase activity” value is given as 46% and the “inhibition of basal aromatase activity (in words)” value is “inhibited”. In the data set with Meth A sarcoma, the tumour growth entry is given as “significantly reduced”. The “inhibition of IL-6 plus IL-6sR (50 ng+100 ng/ml) stimulated aromatase activity, significance” value in data set [1] is on record as “significant”. In addition, in data set [2], the “inhibition of stimulation … by PGE2 (in words)” value is recorded as “antagonise; also recorded: inhibited” and the “inhibition of PGE2 (10 μM) stimulated aromatase activity, significance” value was “significant”. Further, in data set [3], the “inhibition of TNFα (20 ng/ml) stimulated aromatase activity, significance” value was “significant”; the “inhibition of TNFα-stimulated aromatase activity” value was found to be 56%; the “inhibition of TNFα-stimulated aromatase activity (in words)” value is given as “inhibited”. Also, in [3] (compound at 0.1 μM), the “inhibition of TNFα stimulation of aromatase activity, dose-response study” value was found to be 51%. Also, the “inhibition of TNFα-stimulated aromatase activity (in words)” value in [3] (listed as 2-methoxyoestradiol) was “significantly inhibited”.
On to `COc1cc2c(cc1O)CC[C@@H]1[C@@H]2CC[C@]2(C)[C@@H](O)[C@H](O)C[C@@H]12` [2-meOE3, 2-methoxyoestriol], for which, in data set [3] (compound at 5 μM), the “inhibition of TNFα stimulation of aromatase activity at 5 μM (in words)” value is on record as “did not significantly reduce”. Besides, the “inhibition of TNFα stimulation of aromatase activity at highest concentration tested (in words)” value in data set [3] (highest concentration tested) is listed as “some inhibitory effect”. For the same molecule, the “inhibition of TNFα-stimulated aromatase activity (in words)” value in data set [3] was “less effective”; in [3] (listed as 16α-hydroxy derivative of 2-meOE2), “limited ability to suppress”.
For the molecule `COc1cc2c(c(OC)c1OC)-c1ccc(OC)c(=O)cc1[C@@H](NC(C)=O)CC2` [Colchicine], the figures for the “inhibition of TNFα-stimulated aromatase activity (in words)” value in data set [3] and in [3] (listed as colchicine) were “without effect” and “unable to inhibit”, respectively.
As to `C=C1[C@@H](C)[C@H]2[C@H](Cc3ccccc3)NC(=O)[C@]23OC(=O)/C=C/[C@H](O)CCC[C@@H](C)C/C=C/[C@H]3[C@@H]1O` [Cytocholasin B], the “inhibition of TNFα-stimulated aromatase activity (in words)” value in data set [3] is recorded as “without effect”; in [3] (listed as cytocholasin B), “unable to inhibit”.
Consider `C[C@]12CC[C@@H]3c4ccc(O)cc4CC[C@H]3[C@@H]1CC[C@@H]2O` [oestradiol], for which, in [5], the “inhibition of TNFα stimulated aromatase activity in adipose stromal cells” value is “can inhibit”.
On to `CC(=O)O[C@H]1C(=O)[C@@]2(C)[C@H]([C@H](OC(=O)c3ccccc3)[C@]3(O)C[C@H](OC(=O)[C@H](O)[C@@H](NC(=O)c4ccccc4)c4ccccc4)C(C)=C1C3(C)C)[C@]1(OC(C)=O)CO[C@@H]1C[C@@H]2O` [paclitaxel], for which, in the data set on aromatase, the “inhibition of basal aromatase activity” value turned out to be 88% and the “inhibition of basal aromatase activity (in words)” value is recorded as “inhibited”. Besides, in [1], the “inhibition of stimulation of aromatase activity by IL-6 plus its soluble receptor (in words)” value was “antagonise; also recorded: inhibited” and the “inhibition of IL-6 plus IL-6sR (50 ng+100 ng/ml) stimulated aromatase activity, significance” value was “significant”. Further, in data set [2], the “inhibition of stimulation … by PGE2 (in words)” value is on record as “antagonise; also recorded: inhibited” and the “inhibition of PGE2 (10 μM) stimulated aromatase activity, significance” value is on record as “significant”. In addition, the inhibition at 0.1 µM in data set [3] (Homo sapiens, Fibroblast, compound at 0.1 μM, read-out: inhibition of TNFα stimulation of aromatase activity, dose-response study) was determined as 90%. In data set [3], the “inhibition of TNFα (20 ng/ml) stimulated aromatase activity, significance” value is “significant”; the “inhibition of TNFα-stimulated aromatase activity” value stood at 91%; the “inhibition of TNFα-stimulated aromatase activity (in words)” value is “significantly inhibited”. Besides, the “inhibition of TNFα-stimulated aromatase activity (in words)” value in data set [3] (listed as Paclitaxel) is “inhibited”. Also, the “effect on TNFα receptors” value in the data set on TNFα receptors was “rapidly down-regulate”.
Turning to TNFα, in [3] (in the presence of dexamethasone, reduction mammoplasty fibroblasts), the “stimulation of aromatase activity” value is given as 375%.

The record behind these values is patent publication US20020055462A1, “Use” (priority 1999, published 2002).
